These results are taken from publication PMC7394479 (Journal of medicinal chemistry, 2020).

For data set [1] the following is noted: cited from earlier work.
Data set [2] is described as follows: Mouse liver microsomal stability. Background: Microsomes from liver hold many membrane-bound enzymes, among them those of drug oxidation.
The target in a further data set is human EP2 receptor (Homo sapiens, UniProt P43116). The data set can be described thus: Cell-based cAMP TR-FRET assay, Schild KB against PGE2 at EP2. The following applies: for fold less EP2 potency in comparison to 2a: comparator 2a; for fold less potent than equivalent nicotinic derivative: 11a vs 8b, 11b vs 8g, 11c vs 8f. (Time-resolved FRET reads energy transfer from a long-lived donor to a nearby acceptor.)

Data set [3] in a line: Kinetic aqueous solubility in PBS pH 7.4 by nephelometry. The following applies: comparator 2a. In kind it is physicochemical.
In a further data set the target is human EP4 receptor (Homo sapiens, UniProt P35408). The data set can be described thus: Cell-based cAMP TR-FRET assay, Schild KB against PGE2 at EP4. The following applies: for S.I (EP4/EP2): selectivity index EP4 KB/EP2 KB.
In another data set the target is human IP receptor (Homo sapiens, UniProt P43119). The data set can be described thus: Cell-based cAMP TR-FRET assay, Schild KB against iloprost at IP. The following applies: for S.I (IP/EP2): selectivity index IP KB/EP2 KB.
Data set [4] is described as follows: Solubility in simulated gastric fluid pH 2.0 by nephelometry. The format is physicochemical.
The target in the next data set is T1, human DP1 receptor (Homo sapiens, UniProt Q13258).
T1 sequence (Q13258 1-359): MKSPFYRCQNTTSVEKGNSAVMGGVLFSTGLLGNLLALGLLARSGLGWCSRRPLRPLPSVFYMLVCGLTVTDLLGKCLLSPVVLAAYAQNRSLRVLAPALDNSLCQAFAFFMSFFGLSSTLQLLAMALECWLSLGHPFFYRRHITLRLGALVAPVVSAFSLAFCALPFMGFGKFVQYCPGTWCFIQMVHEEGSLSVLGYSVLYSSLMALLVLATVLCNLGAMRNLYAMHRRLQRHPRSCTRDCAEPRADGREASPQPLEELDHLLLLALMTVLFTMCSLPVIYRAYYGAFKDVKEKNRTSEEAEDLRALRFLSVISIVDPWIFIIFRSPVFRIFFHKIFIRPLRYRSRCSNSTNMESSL
The data set can be described thus: Cell-based cAMP TR-FRET assay, Schild KB against BW245C at DP1. The following applies: for S.I. (DP1/EP2): selectivity index DP1 KB/EP2 KB.

The nature of data set [5]: Mouse pharmacokinetics and brain-to-plasma ratio. In kind it is in vivo.
Data set [6] deals with MDR1-MDCK cell line.
A short description of data set [7]: 24 h shake flask thermodynamic solubility in neat water. In kind it is physicochemical.
Data set [8] can be described thus: Human liver microsomal stability. In kind it is in vitro ADME. The following applies: 1 μM compound, 0.5 mg/mL human liver microsomes (compounds 1 and 3).
For data set [9], the system named is MDR1-MDCK cell line. The data set can be described thus: Permeability across MDR1-expressed MDCK cell monolayers.
Data set [10] in a line: Metabolite identification in mouse liver microsomes. The following applies: 20 min incubation, LC-MS/MS. The format is in vitro ADME.

Structures are written as SMILES. “Also recorded” adds a separate entry of the source. Like-named read-outs stand apart in the source and are kept apart here. Some results are limits rather than exact numbers.

human IP receptor, sequence (P43119 whole entry): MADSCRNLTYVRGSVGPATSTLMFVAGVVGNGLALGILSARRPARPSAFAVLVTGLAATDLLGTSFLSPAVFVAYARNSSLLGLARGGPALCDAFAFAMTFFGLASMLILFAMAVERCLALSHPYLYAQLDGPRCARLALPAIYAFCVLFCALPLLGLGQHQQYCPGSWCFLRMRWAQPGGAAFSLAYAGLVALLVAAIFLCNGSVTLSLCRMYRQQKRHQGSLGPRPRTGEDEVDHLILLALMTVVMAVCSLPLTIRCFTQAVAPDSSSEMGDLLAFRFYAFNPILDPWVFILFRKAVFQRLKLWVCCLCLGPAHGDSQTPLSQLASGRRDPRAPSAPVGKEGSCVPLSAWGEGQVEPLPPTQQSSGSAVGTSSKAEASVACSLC
human EP4 receptor, sequence (P35408 whole entry): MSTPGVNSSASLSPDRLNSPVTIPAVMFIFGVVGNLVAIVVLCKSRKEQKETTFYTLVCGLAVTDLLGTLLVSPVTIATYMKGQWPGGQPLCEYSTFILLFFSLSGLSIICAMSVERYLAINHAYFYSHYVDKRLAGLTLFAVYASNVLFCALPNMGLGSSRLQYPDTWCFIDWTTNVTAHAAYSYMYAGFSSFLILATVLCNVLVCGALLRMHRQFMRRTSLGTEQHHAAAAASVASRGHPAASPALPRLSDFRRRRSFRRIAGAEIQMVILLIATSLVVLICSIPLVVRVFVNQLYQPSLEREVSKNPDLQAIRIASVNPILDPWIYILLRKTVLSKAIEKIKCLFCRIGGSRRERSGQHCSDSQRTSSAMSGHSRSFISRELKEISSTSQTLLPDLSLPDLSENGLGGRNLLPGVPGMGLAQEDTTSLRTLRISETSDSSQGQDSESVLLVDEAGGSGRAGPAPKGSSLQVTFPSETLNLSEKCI
human EP2 receptor, sequence (P43116 whole entry): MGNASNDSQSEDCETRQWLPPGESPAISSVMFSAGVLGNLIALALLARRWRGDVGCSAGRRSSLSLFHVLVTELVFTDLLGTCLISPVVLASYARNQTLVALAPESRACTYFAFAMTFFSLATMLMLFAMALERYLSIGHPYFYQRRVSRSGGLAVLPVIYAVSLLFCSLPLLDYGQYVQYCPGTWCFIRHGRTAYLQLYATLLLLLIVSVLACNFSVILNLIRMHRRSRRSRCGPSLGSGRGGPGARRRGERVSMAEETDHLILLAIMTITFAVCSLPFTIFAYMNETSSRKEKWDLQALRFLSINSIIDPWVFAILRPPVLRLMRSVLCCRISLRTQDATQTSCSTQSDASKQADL

In general, half-life refers to the time in which the quantity being followed falls by half. A high value points to slow loss. Turning to `Cc1[nH]c2ccccc2c1CCNC(=O)c1ccc(N2CCOCC2)cc1` [2a], in [1], the “half-life in mouse liver microsomes” value was under 2 min. Also, the half-life at 1 μM in data set [2] (mouse, pooled liver microsomes) was under 2 min.
Turning to `Cc1[nH]c2ccccc2c1CCNC(=O)c1ccc(N2CCOCC2)nc1` [2b, N-(2-(2-Methyl-1H-indol-3-yl)ethyl)-6-morpholinonicotinamide], the “fold less EP2 potency in comparison to 2a” value on human EP2 receptor worked out at 4 fold. Besides, in [3], the “fold increased aqueous solubility” value worked out at 3 fold.
On to `Cc1[nH]c2ccccc2c1CCNC(=O)c1ccc(-c2ccccc2F)nc1` [8e, 6-(2-Fluorophenyl)-N-(2-(2-methyl-1H-indol-3-yl)ethyl)nicotinamide], for which the “fold less EP2 potency in comparison to 2a” value at human EP2 receptor was 2 fold. Besides, at human EP2 receptor (comparator 8c (14b: vs. 14c or 8c)), the “fold less EP2 potency in comparison to 8c” value came to 4 fold.
As for `COc1cccc(-c2ccc(C(=O)NCCc3c(C)[nH]c4ccccc34)nc2)c1` [11a, 5-(3-Methoxyphenyl)-N-(2-(2-methyl-1H-indol-3-yl)ethyl)picolinamide], the “fold less potent than equivalent nicotinic derivative” value at human EP2 receptor turned out to be 4 fold.
Same read-out and setting: the same measure for `COc1cc(OC)cc(-c2ccc(C(=O)NCCc3c(C)[nH]c4ccccc34)nc2)c1` [11b, 5-(3,5-Dimethoxyphenyl)-N-(2-(2-methyl-1H-indol-3-yl)ethyl)picolinamide]: 11 fold.
In general, solubility refers to the concentration that dissolves in the medium under given conditions. Consider `COc1ccccc1-c1ncc(C(=O)NCCc2c(C)[nH]c3ccccc23)cn1` [14a, 2-(2-Methoxyphenyl)-N-(2-(2-methyl-1H-indol-3-yl)ethyl)pyrimidine-5-carboxamide], for which the “S.I (EP4/EP2)” value on human EP4 receptor is 517. Moreover, the “S.I (IP/EP2)” value on human IP receptor was 730. The same compound showed a solubility in data set [4] (simulated gastric fluid) of over 100 µM.
For `Cc1[nH]c2ccccc2c1CCNC(=O)c1cnc(Nc2ccccn2)nc1` [20a, N-(2-(2-Methyl-1H-indol-3-yl)ethyl)-2-(pyridin-2-ylamino)pyrimidine-5-carboxamide], the “S.I. (DP1/EP2)” value at human DP1 receptor is over 900. At human IP receptor, the “S.I (IP/EP2)” value is listed as over 900.
As for `Cc1[nH]c2ccccc2c1CCNC(=O)c1cnc(Nc2cc(F)ccn2)nc1` [20c, 2-((4-Fluoropyridin-2-yl)amino)-N-(2-(2-methyl-1H-indol-3-yl)ethyl)pyrimidine-5-carboxamide], on human EP4 receptor, the “S.I (EP4/EP2)” value is reported as over 1500. Further, at human IP receptor, the “S.I (IP/EP2)” value is on record as over 1500. In [5] (mouse, in vivo), the “in vivo stability in words” value is reported as “unstable in vivo”.
Turning to `Cc1cccc(Nc2ncc(C(=O)NCCc3c(C)[nH]c4ccccc34)cn2)n1` [20e, N-(2-(2-Methyl-1H-indol-3-yl)ethyl)-2-((6-methylpyridin-2-yl)amino)pyrimidine-5-carboxamide], the “S.I (EP4/EP2)” value at human EP4 receptor is reported as over 1500. Further, the “S.I (IP/EP2)” value on human IP receptor is recorded as over 1500.
Turning to `Cc1[nH]c2ccccc2c1CCNC(=O)c1cnc(Nc2cccc(F)n2)nc1` [20f, 2-((6-Fluoropyridin-2-yl)amino)-N-(2-(2-methyl-1H-indol-3-yl)ethyl)pyrimidine-5-carboxamide], in [2] (24i vs 20o, 20c vs 20b, 20f vs 20e), the “fold higher half-life in mouse liver microsomes” value is listed as 8 fold.
As for `COc1cccc(Nc2ncc(C(=O)NCCc3c(C)[nH]c4ccccc34)cn2)n1` [20h, 2-((6-Methoxypyridin-2-yl)amino)-N-(2-(2-methyl-1H-indol-3-yl)ethyl)pyrimidine-5-carboxamide], at human DP1 receptor, the Kb is over 10 µM and the “S.I. (DP1/EP2)” value is listed as over 1280. Also, on human IP receptor, the Kb is over 10 µM and the “S.I (IP/EP2)” value was over 1280.
On to `CC(=O)c1ccc(Nc2ncc(C(=O)NCCc3c(C)[nH]c4ccccc34)cn2)nc1` [20l, 2-((5-Acetylpyridin-2-yl)amino)-N-(2-(2-methyl-1H-indol-3-yl)ethyl)pyrimidine-5-carboxamide], for which the “fold reduced EP2 potency in comparison to 20b” value at human EP2 receptor (comparator 20b) is 20 fold.
In the case of `Cc1cc(C)nc(Nc2ncc(C(=O)NCCc3c(C)[nH]c4ccccc34)cn2)c1` [20o, 2-((4,6-Dimethylpyridin-2-yl)amino)-N-(2-(2-methyl-1H-indol-3-yl)ethyl)pyrimidine-5-carboxamide], the solubility in data set [4] is over 250 µM. Further, the “efflux pump substrate status” value with MDR1-MDCK cell line [6] was “not the substrate of efflux pumps”. Moreover, in the data set on MDR1-MDCK cell line [6] (dog), the “Permeability across MDR1-MDCK cell line, A-B” value was “B-A: 22.2 × 10^−6 cm/s A-B: 13.2 × 10^−6 cm/s” and the “Permeability across MDR1-MDCK cell line, B-A” value is “B-A: 22.2 × 10^−6 cm/s A-B: 13.2 × 10^−6 cm/s”.
On to `Cc1cc(C)nc(Nc2ncc(C(=O)NCCc3c(C)[nH]c4ccccc34)cn2)c1.Cl` [20o.HCl, 2-((4,6-Dimethylpyridin-2-yl)amino)-N-(2-(2-methyl-1H-indol-3-yl)ethyl)pyrimidine-5-carboxamide.Hydrochloride], for which, in data set [7] (2 mg/mL in neat water, starting pH 6.4), the “water pH after dissolving the compound” value amounted to 3.5.
As to `Cc1[nH]c2ccccc2c1CCNC(=O)c1cnc(Nc2ccncc2)nc1` [20p, N-(2-(2-Methyl-1H-indol-3-yl)ethyl)-2-(pyridin-4-ylamino)pyrimidine-5-carboxamide], the “EP2 potency in words” value at human EP2 receptor is given as “complete loss of potency”.
`Cc1[nH]c2ccccc2c1CCNC(=O)c1cnc(Nc2cccnc2)nc1` [20q, N-(2-(2-Methyl-1H-indol-3-yl)ethyl)-2-(pyridin-3-ylamino)pyrimidine-5-carboxamide]: on human EP4 receptor, the Kb was over 10 µM and the “S.I (EP4/EP2)” value is over 1200. Also, on human IP receptor, the Kb is over 10 µM and the “S.I (IP/EP2)” value is listed as over 1200.
For the compound `Cc1ccc(Nc2ncc(C(=O)NCCc3c(C)[nH]c4ccccc34)cn2)c(C)n1` [20r, 2-((2,6-Dimethylpyridin-3-yl)amino)-N-(2-(2-methyl-1H-indol-3-yl)ethyl)pyrimidine-5-carboxamide], the “fold reduced EP2 potency” value on human EP2 receptor (comparator not clearly stated) was found to be 10 fold.
For `Cc1cc(C)nc(Nc2ncc(C(=O)NCCc3c(C)[nH]c4ccc(Cl)cc34)cn2)c1` [24b, N-(2-(5-Chloro-2-methyl-1H-indol-3-yl)ethyl)-2-((4,6-dimethylpyridin-2-yl)amino)pyrimidine-5-carboxamide], at human EP4 receptor, the Kb was over 10 µM and the “S.I (EP4/EP2)” value was over 350. In addition, at human IP receptor, the Kb was over 10 µM and the “S.I (IP/EP2)” value is listed as over 350.
Consider `Cc1cc(C)nc(Nc2ncc(C(=O)NCCc3c(C)[nH]c4c(F)cc(F)cc34)cn2)c1` [24c, N-(2-(5,7-Difluoro-2-methyl-1H-indol-3-yl)ethyl)-2-((4,6-dimethylpyridin-2-yl)amino)pyrimidine-5-carboxamide], for which, on human IP receptor, the Kb was over 10 µM and the “S.I (IP/EP2)” value is over 500. The solubility in data set [4] (simulated gastric fluid) was over 100 µM.
Consider `Cc1cc(C)nc(Nc2ncc(C(=O)NCCc3c(C)[nH]c4c(Cl)cc(Cl)cc34)cn2)c1.Cl` [24d.HCl], for which, in [7] (HCl salt, neat water, 2 mg/mL, 24 h shake flask, HPLC), the “Water solubility of corresponding HCl salt” value was “c The solubility of compounds measured in simulated gastric fluid at pH 2.0 by nephelometry. Compound 24dis a milky-white solution in DMSO and 24 h is an inactive compound. Therefore, their solubility is not determined by nephelometry, however, 24d.HClis highly water soluble”.
Consider `Cc1cc(C)nc(Nc2ncc(C(=O)NCCc3c(C(F)(F)F)[nH]c4ccccc34)cn2)c1` [24f, 2-((4,6-Dimethylpyridin-2-yl)amino)-N-(2-(2-(trifluoromethyl)-1H-indol-3-yl)ethyl)pyrimidine-5-carboxamide], for which, on human EP2 receptor (comparator 20o), the “fold reduced EP2 potency in comparison to 20o” value was 8 fold.
Turning to `Cc1cc(C)nc(Nc2ncc(C(=O)NCC(=O)c3c(C)[nH]c4ccccc34)cn2)c1` [24h, 2-((4,6-Dimethylpyridin-2-yl)amino)-N-(2-(2-methyl-1H-indol-3-yl)-2-oxoethyl)pyrimidine-5-carboxamide], at human EP2 receptor, the “EP2 potency in words” value was “eliminated the potency”.
As for `COc1cc(/C=C/C(=O)NCCn2c(C(F)(F)F)cc3ccccc32)cc(OC)c1OC` [compound 1], the “HLM t1/2” value in data set [8] was 11 min. Also, the “In vivo plasma t1/2” value in data set [5] (mice, ip/po, 10 mg/kg dose) is recorded as 1.7 (ip/po, 10 mg/kg dose) h. Further, in data set [2] (1 μM compound, 0.5 mg/mL mouse liver microsomes (compounds 1 and 3)), the “MLM t1/2” value is listed as 10 min. For the same compound, the “Permeability across MDR1-MDCK cell line, A-B” value in the data set with MDR1-MDCK cell line [9] (apical-to-basolateral) worked out at 25.4 ×10⁻⁶ cm/s. Also, the “Permeability across MDR1-MDCK cell line, B-A” value with MDR1-MDCK cell line [9] (basolateral-to-apical) is 27.1 ×10⁻⁶ cm/s.
On to `Cc1[nH]c2ccccc2c1CCNC(=O)c1ccc(-c2nnn[nH]2)cc1` [compound 3], for which the “metabolic fragments in mouse liver microsomes” value in data set [10] was “did not produce any fragments even after 20 minutes of incubation; also recorded: has not shown any metabolic fragments even after 20 min of incubation”. For the same compound, in data set [1], the “stability in mouse liver microsomes” value is on record as over 60 min.
